Source: PubChem BioAssay (NCI)
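Here, GI50 denotes the concentration required for 50% inhibition of growth. TGI: total growth inhibition.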

Columns and labels:
Test in all cases: NCI anticancer screen, dose series, 384-well format
786-0 renal = tested on: 786-0 renal
A498 renal = tested on: A498 renal
A549 NSCLC = tested on: A549 NSCLC
ACHN renal = tested on: ACHN renal
BT-549 breast = tested on: BT-549 breast
CAKI-1 renal = tested on: CAKI-1 renal
CCRF-CEM leukemia = tested on: CCRF-CEM leukemia
COLO 205 colon = tested on: COLO 205 colon
DU-145 prostate = tested on: DU-145 prostate
EKVX NSCLC = tested on: EKVX NSCLC
HCC-2998 colon = tested on: HCC-2998 colon
HCT-15 colon = tested on: HCT-15 colon
HL-60(TB) leukemia = tested on: HL-60(TB) leukemia
HOP-62 NSCLC = tested on: HOP-62 NSCLC
HOP-92 NSCLC = tested on: HOP-92 NSCLC
HS 578T breast = tested on: HS 578T breast
HT29 colon = tested on: HT29 colon
IGROV1 ovarian = tested on: IGROV1 ovarian
KM12 colon = tested on: KM12 colon
M14 melanoma = tested on: M14 melanoma
MALME-3M melanoma = tested on: MALME-3M melanoma
MCF7 breast = tested on: MCF7 breast
MDA-MB-231 breast = tested on: MDA-MB-231 breast
MDA-MB-435 melanoma = tested on: MDA-MB-435 melanoma
MDA-MB-468 breast = tested on: MDA-MB-468 breast
MOLT-4 leukemia = tested on: MOLT-4 leukemia
NCI-H226 lung = tested on: NCI-H226 lung
NCI-H23 lung = tested on: NCI-H23 lung
NCI-H322M lung = tested on: NCI-H322M lung
NCI-H460 NSCLC = tested on: NCI-H460 NSCLC
NCI-H522 lung = tested on: NCI-H522 lung
NCI/ADR-RES ovarian = tested on: NCI/ADR-RES ovarian
OVCAR-3 ovarian = tested on: OVCAR-3 ovarian
OVCAR-4 ovarian = tested on: OVCAR-4 ovarian
OVCAR-5 ovarian = tested on: OVCAR-5 ovarian
OVCAR-8 ovarian = tested on: OVCAR-8 ovarian
PC-3 prostate = tested on: PC-3 prostate
RPMI-8226 leukemia = tested on: RPMI-8226 leukemia
RXF 393 renal = tested on: RXF 393 renal
SF-268 CNS = tested on: SF-268 CNS
SF-295 CNS = tested on: SF-295 CNS
SF-539 CNS = tested on: SF-539 CNS
SK-MEL-2 melanoma = tested on: SK-MEL-2 melanoma
SK-MEL-28 melanoma = tested on: SK-MEL-28 melanoma
SK-MEL-5 melanoma = tested on: SK-MEL-5 melanoma
SK-OV-3 ovarian = tested on: SK-OV-3 ovarian
SN12C renal = tested on: SN12C renal
SNB-19 CNS = tested on: SNB-19 CNS
SNB-75 CNS = tested on: SNB-75 CNS
SR leukemia = tested on: SR leukemia
SW-620 colon = tested on: SW-620 colon
T-47D breast = tested on: T-47D breast
TK-10 renal = tested on: TK-10 renal
U251 glioblastoma = tested on: U251 glioblastoma
UACC-257 melanoma = tested on: UACC-257 melanoma
UACC-62 melanoma = tested on: UACC-62 melanoma

## CC1(C)CCC2=C(O1)c1ccccc1C(=O)C2=O
786-0 renal
  GI50: 1840 nM
  TGI: 3.37 µM
A498 renal
  GI50: 1940 nM
  TGI: 3.47 µM
A549 NSCLC
  GI50: 1910 nM
  TGI: 3.35 µM
ACHN renal
  GI50: 1900 nM
  TGI: 3.32 µM
BT-549 breast
  GI50: 1770 nM
  TGI: 3.16 µM
CAKI-1 renal
  GI50: 1870 nM
  TGI: 3.28 µM
CCRF-CEM leukemia
  GI50: 1890 nM
  TGI: 3.32 µM
COLO 205 colon
  GI50: 2270 nM
  TGI: 3.73 µM
DU-145 prostate
  GI50: 1850 nM
  TGI: 3.28 µM
EKVX NSCLC
  GI50: 1750 nM
  TGI: 3.15 µM
HCC-2998 colon
  GI50: 1750 nM
  TGI: 3.42 µM
HCT-15 colon
  GI50: 1840 nM
  TGI: 3.26 µM
HL-60(TB) leukemia
  GI50: 1440 nM
  TGI: 2790 nM
HOP-62 NSCLC
  GI50: 1610 nM
  TGI: 2980 nM
HOP-92 NSCLC
  GI50: 1880 nM
  TGI: 3.33 µM
HS 578T breast
  GI50: 1700 nM
  TGI: 3.08 µM
HT29 colon
  GI50: 1880 nM
  TGI: 3.31 µM
IGROV1 ovarian
  GI50: 2020 nM
  TGI: 3.82 µM
KM12 colon
  GI50: 2060 nM
  TGI: 3.8 µM
M14 melanoma
  GI50: 1940 nM
  TGI: 3.37 µM
MALME-3M melanoma
  GI50: 1990 nM
  TGI: 3.42 µM
MCF7 breast
  GI50: 1790 nM
  TGI: 3.21 µM
MDA-MB-231 breast
  GI50: 1880 nM
  TGI: 3.54 µM
MDA-MB-435 melanoma
  GI50: 1860 nM
  TGI: 3.27 µM
MDA-MB-468 breast
  GI50: 1200 nM
  TGI: 2450 nM
MOLT-4 leukemia
  GI50: 1760 nM
  TGI: 3.17 µM
NCI-H226 lung
  GI50: 2000 nM
  TGI: 3.44 µM
NCI-H23 lung
  GI50: 1370 nM
  TGI: 2670 nM
NCI-H322M lung
  GI50: 2510 nM
  TGI: 5.8 µM
NCI-H460 NSCLC
  GI50: 1900 nM
  TGI: 3.5 µM
NCI-H522 lung
  GI50: 1840 nM
  TGI: 3.24 µM
NCI/ADR-RES ovarian
  GI50: 2080 nM
  TGI: 3.74 µM
OVCAR-3 ovarian
  GI50: 1790 nM
  TGI: 3.22 µM
OVCAR-4 ovarian
  GI50: 2000 nM
  TGI: 3.43 µM
OVCAR-5 ovarian
  GI50: 1620 nM
  TGI: 2990 nM
OVCAR-8 ovarian
  GI50: 1980 nM
  TGI: 3.72 µM
PC-3 prostate
  GI50: 2140 nM
  TGI: 4.98 µM
RPMI-8226 leukemia
  GI50: 1820 nM
  TGI: 3.23 µM
RXF 393 renal
  GI50: 1930 nM
  TGI: 3.35 µM
SF-268 CNS
  GI50: 1970 nM
  TGI: 3.49 µM
SF-295 CNS
  GI50: 1480 nM
  TGI: 2910 nM
SF-539 CNS
  GI50: 1890 nM
  TGI: 3.31 µM
SK-MEL-2 melanoma
  GI50: 3.02 µM
  TGI: 4.53 µM
SK-MEL-28 melanoma
  GI50: 2480 nM
  TGI: 3.96 µM
SK-MEL-5 melanoma
  GI50: 1750 nM
  TGI: 3.14 µM
SK-OV-3 ovarian
  GI50: 1750 nM
  TGI: 3.28 µM
SN12C renal
  GI50: 1610 nM
  TGI: 2980 nM
SNB-19 CNS
  GI50: 1880 nM
  TGI: 3.43 µM
SNB-75 CNS
  GI50: 950 nM
  TGI: 2140 nM
SR leukemia
  GI50: 1890 nM
  TGI: 3.32 µM
SW-620 colon
  GI50: 1790 nM
  TGI: 3.2 µM
T-47D breast
  GI50: 1360 nM
  TGI: 2660 nM
TK-10 renal
  GI50: 3.37 µM
  TGI: 10.6 µM
U251 glioblastoma
  GI50: 2010 nM
  TGI: 3.63 µM
UACC-257 melanoma
  GI50: 1670 nM
  TGI: 3.05 µM
UACC-62 melanoma
  GI50: 1970 nM
  TGI: 3.4 µM
